A short description of data set [1]: AUC in Wistar rat at 1 mg/kg, po by HPLC-MS/MS analysis. The data set is classed as ADME, organism-based. Set-up: dose 1 mg/kg, route oral. Conditions: plasma.
Another data set has as its target T1, CYP19 (aromatase) (Homo sapiens, UniProt P11511).
T1 sequence (P11511 whole entry): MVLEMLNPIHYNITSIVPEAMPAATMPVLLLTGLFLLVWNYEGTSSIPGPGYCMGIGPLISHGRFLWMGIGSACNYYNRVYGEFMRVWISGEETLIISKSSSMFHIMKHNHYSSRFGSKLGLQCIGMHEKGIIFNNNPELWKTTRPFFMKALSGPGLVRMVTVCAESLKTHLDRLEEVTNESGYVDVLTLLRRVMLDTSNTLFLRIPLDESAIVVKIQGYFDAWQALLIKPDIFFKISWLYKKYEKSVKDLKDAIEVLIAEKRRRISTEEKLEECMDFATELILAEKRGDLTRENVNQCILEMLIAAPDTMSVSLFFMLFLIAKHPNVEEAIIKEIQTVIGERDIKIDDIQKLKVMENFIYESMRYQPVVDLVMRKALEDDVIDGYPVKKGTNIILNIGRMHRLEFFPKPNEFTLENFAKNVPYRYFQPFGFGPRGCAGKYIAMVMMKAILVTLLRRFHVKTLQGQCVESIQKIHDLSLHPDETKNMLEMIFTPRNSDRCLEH
The data set is described as follows: Inhibition of human recombinant CYP19 using [1beta3H]androstenedione as substrate at 500 nM. Conditions: recombinant human CYP19, probe [1beta3H]androstenedione.

Data set [2] concerns the target T2, Cytochrome P450 11B2, mitochondrial (Homo sapiens, UniProt P19099).
T2 sequence (P19099 whole entry): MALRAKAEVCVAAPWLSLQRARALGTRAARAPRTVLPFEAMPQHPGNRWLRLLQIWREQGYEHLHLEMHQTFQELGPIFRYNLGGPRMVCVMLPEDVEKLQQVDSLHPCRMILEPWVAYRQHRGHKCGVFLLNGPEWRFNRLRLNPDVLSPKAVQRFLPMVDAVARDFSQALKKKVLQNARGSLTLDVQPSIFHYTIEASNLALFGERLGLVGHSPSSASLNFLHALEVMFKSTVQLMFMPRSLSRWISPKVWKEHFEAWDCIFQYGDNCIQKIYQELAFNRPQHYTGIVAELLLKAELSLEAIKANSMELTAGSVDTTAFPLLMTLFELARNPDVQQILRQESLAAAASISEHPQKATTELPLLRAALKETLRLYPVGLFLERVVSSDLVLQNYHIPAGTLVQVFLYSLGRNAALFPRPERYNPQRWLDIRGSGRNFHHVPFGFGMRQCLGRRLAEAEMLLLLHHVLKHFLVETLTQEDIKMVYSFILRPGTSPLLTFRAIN
The data set is classed as cell-based. Conditions: V79MZ, 1 h.

Data set [3] addresses T2, Cytochrome P450 11B2, mitochondrial.
Description: Inhibition of human CYP11B2 expressed in hamster V79MZ cells using [3H]-11-deoxycorticosterone as substrate after 1 hr by HPLC analysis
Data set [4] can be described thus: AUC in Wistar rat at 1 mg/kg, iv by HPLC-MS/MS analysis. The data set is classed as ADME, organism-based. Set-up: dose 1 mg/kg, route intravenous. The following applies: plasma.
The nature of data set [5]: Terminal half life in Wistar rat at 1 mg/kg, po by HPLC-MS/MS analysis. The arrangement: dose 1 mg/kg, route oral. The following applies: in vivo, read-out: beta t1/2 (converted). The data set is classed as ADME, organism-based.
A further data set deals with T3, CYP17 (Homo sapiens, UniProt P05093).
T3 sequence (P05093 whole entry): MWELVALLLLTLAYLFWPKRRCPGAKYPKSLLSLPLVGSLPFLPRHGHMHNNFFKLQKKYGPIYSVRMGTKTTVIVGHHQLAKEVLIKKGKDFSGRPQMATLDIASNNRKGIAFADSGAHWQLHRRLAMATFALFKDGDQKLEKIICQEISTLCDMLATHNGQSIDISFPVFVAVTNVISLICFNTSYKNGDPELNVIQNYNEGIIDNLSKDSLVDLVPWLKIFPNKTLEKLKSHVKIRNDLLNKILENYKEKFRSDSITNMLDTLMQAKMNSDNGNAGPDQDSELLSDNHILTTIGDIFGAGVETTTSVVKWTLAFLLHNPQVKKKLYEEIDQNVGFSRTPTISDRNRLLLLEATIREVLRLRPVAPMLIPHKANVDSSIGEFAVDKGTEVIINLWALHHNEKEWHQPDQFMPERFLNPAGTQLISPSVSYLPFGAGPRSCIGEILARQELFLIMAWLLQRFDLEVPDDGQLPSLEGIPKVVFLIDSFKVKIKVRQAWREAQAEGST
The experiment in a line: Inhibition of human recombinant CYP17 expressed in Escherichia coli using progesterone as substrate at 2 uM. Conditions: probe progesterone.

The subject of the next data set is V79MZ. The experiment in a line: Selectivity ratio of IC50 for human CYP11B1 expressed in hamster V79MZ cells to IC50 for human CYP11B2 expressed in hamster V79MZ cells. The data set is classed as cell-based.
The nature of data set [6]: Oral bioavailability in Wistar rat at 1 mg/kg by HPLC-MS/MS analysis. The data set is classed as ADME, organism-based. Conditions: in vivo.
The target of data set [7] is T4, Cytochrome P450 11B1, mitochondrial (Homo sapiens, UniProt P15538).
T4 sequence (P15538 whole entry): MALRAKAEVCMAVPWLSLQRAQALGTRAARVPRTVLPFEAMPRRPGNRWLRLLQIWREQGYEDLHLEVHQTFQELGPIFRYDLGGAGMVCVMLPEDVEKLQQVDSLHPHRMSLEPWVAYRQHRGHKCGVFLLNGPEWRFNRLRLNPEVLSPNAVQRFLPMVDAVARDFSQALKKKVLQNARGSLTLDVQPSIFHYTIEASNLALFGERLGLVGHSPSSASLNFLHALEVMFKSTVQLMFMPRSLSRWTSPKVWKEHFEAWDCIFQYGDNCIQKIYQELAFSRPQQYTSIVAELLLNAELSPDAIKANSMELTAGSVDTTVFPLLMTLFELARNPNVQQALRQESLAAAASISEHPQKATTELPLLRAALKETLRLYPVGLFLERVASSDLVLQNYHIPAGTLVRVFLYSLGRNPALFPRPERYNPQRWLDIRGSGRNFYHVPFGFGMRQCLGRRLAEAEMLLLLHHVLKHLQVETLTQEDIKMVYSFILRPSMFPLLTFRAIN
Description: Inhibition of human CYP11B1 expressed in hamster V79MZ cells using [3H]-11-deoxycorticosterone as substrate after 1 hr by HPLC analysis

The nature of data set [8]: Cmax in Wistar rat at 1 mg/kg, po after 0.5 hrs by HPLC-MS/MS analysis. The data set is classed as ADME, organism-based. The arrangement: dose 1 mg/kg, route oral. The following applies: in vivo.
The nature of data set [9]: Terminal half life in Wistar rat at 1 mg/kg, iv by HPLC-MS/MS analysis. The data set is classed as ADME, organism-based. The arrangement: dose 1 mg/kg, route intravenous. Conditions: in vivo, read-out: beta t1/2 (converted).

As for `[O-][S+](c1cccc(OC(F)(F)F)c1)c1c(O)c(-c2cccnc2)cc2ccccc12` (configuration not stated), the AUC in data set [1] was 335 ng·h/mL; in data set [4], 1780 ng·h/mL. For the same compound, the inhibition at 0.5 µM on CYP19 (aromatase) is below 5%. The same compound showed an inhibition in [2] of 83%. The IC50 in data set [3] amounted to 14 nM; in data set [7], 5810 nM. Moreover, the values for the half-life in data set [5] and in data set [9] were 7 h and 4 h, respectively. For the same compound, the inhibition at 2 µM on CYP17 was below 5%. Besides, the Ratio IC50 with V79MZ came out at 415. In data set [6], the bioavailability worked out at 19%. Besides, in data set [8], the Cmax turned out to be 40.4 ng/mL.

In the case of `[O-][S+](c1cccc(C(F)(F)F)c1)c1c(O)c(-c2cccnc2)cc2ccccc12` (configuration not stated), the inhibition at 0.5 µM at CYP19 (aromatase) is below 5%. Further, the inhibition in [2] came out at 88%. The IC50 in data set [3] stood at 43 nM; in data set [7], 6670 nM. The inhibition at 2 µM on CYP17 was below 5%. In the data set on V79MZ, the Ratio IC50 came out at 155.

On to `[O-][S+](c1cccc(F)c1)c1c(O)c(-c2cccnc2)cc2ccccc12` (configuration not stated), for which the inhibition at 0.5 µM at CYP19 (aromatase) was below 5%. Also, the inhibition in data set [2] was 85%. For the same compound, the IC50 in [3] came to 39 nM; in [7], 6550 nM. In addition, on CYP17, the inhibition at 2 µM was below 5%. In addition, the Ratio IC50 in the data set with V79MZ came out at 168.

Take `COc1cccc([S+]([O-])c2c(O)c(-c3cccnc3)cc3ccccc23)c1` (configuration not stated): the inhibition at 0.5 µM at CYP19 (aromatase) is below 5%. In data set [2], this compound yielded an inhibition of 87%. Also, the IC50 in data set [3] stood at 27 nM; in [7], 7310 nM. In addition, the inhibition at 2 µM on CYP17 was below 5%. For the same compound, in the data set with V79MZ, the Ratio IC50 came to 271.

For the compound `[O-][S+](c1ccc(F)cc1)c1c(O)c(-c2cccnc2)cc2ccccc12` (configuration not stated), the inhibition at 0.5 µM at CYP19 (aromatase) is below 5%. Further, the inhibition in [2] came out at 84%. The IC50 in data set [3] is 33 nM; in [7] it was 5550 nM. In addition, the inhibition at 2 µM at CYP17 is below 5%. In addition, the Ratio IC50 in the data set with V79MZ is 168.

Regarding `COc1ccc([S+]([O-])c2c(O)c(-c3cccnc3)cc3ccccc23)cc1` (configuration not stated), the inhibition at 0.5 µM on CYP19 (aromatase) was below 5%. In data set [2], the inhibition worked out at 80%. In addition, the values for the IC50 in [3] and in data set [7] were 48 nM and 4200 nM, respectively. In addition, on CYP17, the inhibition at 2 µM was below 5%. The Ratio IC50 in the data set with V79MZ is 87.

Regarding `[O-][S+](c1ccc(C(F)(F)F)cc1)c1c(O)c(-c2cccnc2)cc2ccccc12` (configuration not stated), at CYP19 (aromatase), the inhibition at 0.5 µM is below 5%. The inhibition in [2] was found to be 81%. Further, the figures for the IC50 in [3] and in [7] were 25 nM and 6190 nM, respectively. For the same compound, the inhibition at 2 µM on CYP17 is below 5%. In addition, the Ratio IC50 with V79MZ was 248.

With `[O-][S+](c1ccc(OC(F)(F)F)cc1)c1c(O)c(-c2cccnc2)cc2ccccc12` (configuration not stated), on CYP19 (aromatase), the inhibition at 0.5 µM was below 5%. Further, in data set [2], the inhibition was found to be 88%. Further, the figures for the IC50 in data set [3] and in [7] were 32 nM and 7430 nM, respectively. For the same compound, the inhibition at 2 µM at CYP17 is below 5%. Moreover, the Ratio IC50 in the data set with V79MZ was found to be 232.

Regarding `[O-][S+](c1ccc(Cl)cc1)c1c(O)c(-c2cccnc2)cc2ccccc12` (configuration not stated), the inhibition at 0.5 µM on CYP19 (aromatase) was below 5%. The same compound registered an inhibition in [2] of 84%. The figures for the IC50 in [3] and in data set [7] were 22 nM and 8950 nM, respectively. The inhibition at 2 µM on CYP17 was below 5%. Besides, in the data set with V79MZ, the Ratio IC50 was found to be 407.

Turning to `N#Cc1cccc([S+]([O-])c2c(O)c(-c3cccnc3)cc3ccccc23)c1` (configuration not stated), at CYP19 (aromatase), the inhibition at 0.5 µM is below 5%. In [2], this compound yielded an inhibition of 84%. The IC50 in data set [3] was 46 nM; in [7], 8550 nM. Besides, the inhibition at 2 µM at CYP17 is below 5%. Besides, the Ratio IC50 in the data set with V79MZ was 186.

Regarding `[O-][S+](c1cc(Cl)cc(Cl)c1)c1c(O)c(-c2cccnc2)cc2ccccc12` (configuration not stated), the inhibition at 0.5 µM on CYP19 (aromatase) was below 5%. Moreover, the inhibition in data set [2] came to 87%. Besides, the figures for the IC50 in data set [3] and in data set [7] were 47 nM and 4720 nM, respectively. Moreover, on CYP17, the inhibition at 2 µM is below 5%. Moreover, the Ratio IC50 with V79MZ is 100.
